Patent US4078146A, “Phenoxy propanolamines” (priority 1972, dated 1978)
Read-outs that look alike come from different tables or passages of the source.

Columns and labels:
β-receptors of the heart = target: T1, β-receptors of the heart (Felis catus, UniProt Q9TST6); test: Intrinsic activity and β-blockade of heart rate response to isoprenaline in the reserpinized cat; format: in vivo; conditions: for ED50: read-out: β-blockade Heart rate ED50; for Emax: read-out: Intrinsic activity % of isoprenaline heart rate response
T1 construct: Intravenously injected isoprenaline increased the heart rate and reduced the perfusion pressure; from tissue; host or cells: heart of the anaesthetized, reserpinized, vagotomized cat (in vivo)
T1 sequence (Q9TST6 whole entry, the tested form may be a part): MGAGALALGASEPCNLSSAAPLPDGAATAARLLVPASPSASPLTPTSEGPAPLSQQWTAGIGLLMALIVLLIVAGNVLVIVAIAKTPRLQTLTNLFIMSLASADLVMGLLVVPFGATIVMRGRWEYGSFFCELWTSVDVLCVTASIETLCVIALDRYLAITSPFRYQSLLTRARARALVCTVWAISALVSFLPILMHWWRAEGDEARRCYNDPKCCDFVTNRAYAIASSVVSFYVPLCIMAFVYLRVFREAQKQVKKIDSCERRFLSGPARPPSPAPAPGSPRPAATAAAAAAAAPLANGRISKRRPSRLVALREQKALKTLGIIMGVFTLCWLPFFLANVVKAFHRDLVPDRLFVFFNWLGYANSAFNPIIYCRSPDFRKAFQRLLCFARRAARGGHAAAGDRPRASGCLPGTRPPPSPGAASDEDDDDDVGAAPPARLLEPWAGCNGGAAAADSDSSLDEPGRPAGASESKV
Protocol: Alprenolol was used as a reference substance.
(§1) Cats weighing between […] were anaesthetized with 30 mg/kg pentobarbital sodium i.p. The cats had been pretreated with reserpine, 5 mg/kg i.m. about 18 hours before the experiment. Bilateral vagotomy was performed before the start of the experiment.
The heart rate was recorded on an Offner cardiotachometer triggered by the EKG-complex. Mean intraarterial blood pressure was recorded from a carotid artery. The peripheral resistance was measured in one of the legs of the cat in the following way: The femoral artery was opened in the inguinal region and the leg was perfused by blood delivered through a sigma motor pump at constant rate. The flow resistance (the pressure) as recorded via a strain gauge transducer connected to the catheter distally to the pump. The paw was excluded from the circulation by a tight ligature around the ankle. […] An isoprenaline dose giving 70-80% of the maximal chronotropic response was determined. […] Ten minutes before each isoprenaline injection, the tested substances were administered intravenously for two minutes, starting with a dose of 0.01 mg/kg and increasing each subsequent dose fourfold. The intrinsic effects of the test substances were determined. The dose producing 50% blockade of the isoprenaline responses were evaluated from the plotted log dose-per cent blockade diagrams.

[1] = target: T2, peripheral vascular β-receptors (Felis catus, UniProt Q9TST5); test: Peripheral vascular β-blockade (peripheral vascular resistance, vasodilator response to isoprenaline) in the reserpinized cat; format: in vivo; conditions: read-out: β-blockade Peripheral vascular resistance ED50
T2 construct: from tissue; host or cells: vascular bed of the blood-perfused leg (paw excluded) of the anaesthetized, reserpinized cat (in vivo)
T2 sequence (Q9TST5 whole entry, the tested form may be a part): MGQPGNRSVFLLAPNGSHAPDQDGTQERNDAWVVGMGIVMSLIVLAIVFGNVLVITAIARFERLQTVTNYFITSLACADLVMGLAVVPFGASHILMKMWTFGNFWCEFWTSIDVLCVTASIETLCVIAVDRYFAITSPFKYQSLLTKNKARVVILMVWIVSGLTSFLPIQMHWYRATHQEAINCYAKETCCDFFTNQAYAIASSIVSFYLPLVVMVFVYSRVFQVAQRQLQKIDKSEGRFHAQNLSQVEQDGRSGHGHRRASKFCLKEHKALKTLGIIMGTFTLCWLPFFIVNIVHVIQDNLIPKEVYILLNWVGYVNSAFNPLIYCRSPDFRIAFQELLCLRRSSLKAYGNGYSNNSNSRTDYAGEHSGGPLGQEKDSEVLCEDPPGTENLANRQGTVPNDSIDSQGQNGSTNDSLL
Protocol: The compounds prepared according to examples 1-18 were evaluated for intrinsic activity and blocking effect on heart rate and for peripheral vasodilator response to isoprenaline in the cat. Alprenolol was used as a reference substance.
as §1
The heart rate was recorded on an Offner cardiotachometer triggered by the EKG-complex. Mean intraarterial blood pressure was recorded from a carotid artery. The peripheral resistance was measured in one of the legs of the cat in the following way: The femoral artery was opened in the inguinal region and the leg was perfused by blood delivered through a sigma motor pump at constant rate. The flow resistance (the pressure) as recorded via a strain gauge transducer connected to the catheter distally to the pump. The paw was excluded from the circulation by a tight ligature around the ankle. Intravenously injected isoprenaline increased the heart rate and reduced the perfusion pressure. An isoprenaline dose giving 70-80% of the maximal chronotropic response was determined. This dose (usually 0.1 μg/kg) was then repeated with 20 minute intervals. Ten minutes before each isoprenaline injection, the tested substances were administered intravenously for two minutes, starting with a dose of 0.01 mg/kg and increasing each subsequent dose fourfold. The intrinsic effects of the test substances were determined. The dose producing 50% blockade of the isoprenaline responses were evaluated from the plotted log dose-per cent blockade diagrams.

[2] = reserpinized cat, intravenous, 50% blockade of isoprenaline response (usually 0.1 μg/kg)

SMILES | ED50 [1, 2] [mg/kg] | ED50 (β-receptors of the heart; cat, iv) [mg/kg] | Emax (β-receptors of the heart; iv) [%] | ED50 ([1]; cat, iv) [mg/kg] | ED50 (β-receptors of the heart; [2]) [mg/kg] | Emax (β-receptors of the heart; reserpinized cat, intravenous) [%]
CC(C)NCC(O)COc1ccc(OCCOC(N)=O)cc1 (stereo not shown) [H2 NCOOC2 H5 O, H, 1-Isopropylamino-3-[4-(2-carbamoyloxyethoxy)-phenoxy]-propanol-2] | – | 0.4 | 40 | 8 | – | –
CC(C)NCC(O)COc1ccc(OCCOC(=O)N(C)C)cc1Cl (stereo not shown) [(CH3)2 NCOOC2 H4 O, Cl, 1-Isopropylamino-3-[2-chloro-4-(2-dimethylcarbamoyloxyethoxy)-phenoxy]-propanol-2] | 1.7 | – | – | – | 0.1 | 5
C=CCc1ccccc1OCC(O)CNC(C)C (stereo not shown) [alprenolol, Alprenolol, reference compound] | – | – | – | – | – | 20
CNC(=O)OCCc1ccc(OCC(O)CNC(C)C)cc1 (stereo not shown) [CH3 NHCOOC2 H4, H, 1-Isopropylamino-3-[4-(2-methylcarbamoyloxyethyl)-phenoxy]-propanol-2] | 2.4 | – | – | – | 0.4 | 0

Now from value to molecule, other results behind:

ED50 [1, 2] [mg/kg] | SMILES | ED50 (β-receptors of the heart; cat, iv) [mg/kg] | Emax (β-receptors of the heart; iv) [%] | ED50 ([1]; cat, iv) [mg/kg] | ED50 (β-receptors of the heart; [2]) [mg/kg] | Emax (β-receptors of the heart; reserpinized cat, intravenous) [%]
14 | CC(C)NCC(O)COc1ccc(CCNC(N)=O)cc1 (stereo not shown) [H2 NCONHC2 H4, H] | – | – | – | 0.4 | 0
1.8 | CNC(=O)OCCc1ccc(OCC(O)CNC(C)C)c(Cl)c1 (stereo not shown) [CH3 NHCOOC2 H4, Cl, 1-Isopropylamino-3-[2-chloro-4-(2-methylcarbamoyloxyethyl)-phenoxy]-propanol-2] | – | – | – | 0.3 | 0
> 8.5 | CNC(=O)OCCOc1ccc(OCC(O)CNC(C)C)cc1 (stereo not shown) [CH3 NHCOOC2 H4 O, H, 1-isopropylamino-3-[4-(2-methylcarbamoyloxyethoxy)-phenoxy]-propanol-2] | – | – | – | 0.5 | 25
2.6 | CC(C)NCC(O)COc1ccc(CCNC(N)=O)cc1Cl (stereo not shown) [H2 NCONHC2 H4, Cl, 1-Isopropylamino-3-[2-chloro-4-(2-carbamoylaminoethyl)phenoxy]-propanol-2] | – | – | – | 0.4 | 0
